In patent US20040058948A1, “Mappicine analogs, methods of inhibiting retroviral reverse transcriptase and methods of treating retroviruses” (priority 2002, published 2004):
Where two headings read alike, the source gives them in different places.

How the values were obtained:
[1] = tested on: cells; settings: published compound, in words; cited from earlier work
[2] = target: T1, RNase H activity of HIV reverse transcriptase (Human immunodeficiency virus type 1 group M subtype B, UniProt P04585); settings: read-out: IC50 RNase H inhibition; literature value (Borkow et al. 1997); cited from earlier work
[3] = tested on: HIV-1 replication; test: Cell culture viral growth assay (HIV-1 replication); type: cell-based; settings: Human immunodeficiency virus 1; cell culture viral growth assay; read-out: EC50 (μM) against HIV-1 replication
[4] = tested on: HIV-1 replication; settings: published compounds, in words; cited from earlier work
[5] = target: T1, RNase H activity of HIV reverse transcriptase; test: Fluorescence (FRET)-based RNase H activity assay of HIV reverse transcriptase; type: biochemical, HIV-1; set-up: final concentration of 2.5 nM of the p51/p66 RT heterodimer in the assay; made in house; settings: read-out: IC50 (μM) against HIV RNase H in vitro
Summary of the method: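 p51/p66 HIV-1 RT (usually 2.5 nM) cleaving a 3′-fluorescein RNA/5′-DABCYL DNA hybrid (2.5 μM stock) in 50 mM Tris pH 8.0, 60 mM KCl, 2.5 mM MgCl2, 37 °C; fluorescence rise (ex 490/em 528 nm) read over 3–60 min. Mappicine analogs at 10 μM; % residual activity or % inhibition versus compound-free enzyme.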

## CC(C)(C)c1ccc(C(=O)NN=Cc2c(O)ccc3ccccc23)cc1 [BBNH, N-4-(t-butylbenzoyl)-2-hydroxy-1-napthaldehyde hydrazone]
[1]
  toxicity to cells: highly toxic to cells at concentrations only slightly above those that inhibit virus replication
[2]
  IC50: ~2 µM
[3]
  EC50: 1.5 µM
[4]
  antiviral activity against HIV-1 replication in cultured cells: demonstrated antiviral activity against HIV-1 replication in cultured cells
[5]
  IC50: 1.8 µM
